Measured values published in patent US7531517B2, “Inhibitors of cancer cell, T-cell and keratinocyte proliferation” (4SC AG, priority 2005, dated 2009).

Biological target: T1, human Proteasome (20S proteasome, chymotryptic activity) (Homo sapiens, UniProt P28074)
T1 construct: purchased Immatics, Tübingen
Experiment: chymotryptic activity of the 20S proteasome (Suc-LLVT-AMC substrate, fluorescence)
Format: biochemical
Conditions: given in words only
Protocol: The chymotryptic activity of the 20S proteasome (Immatics, Tüibingen) was determined using a Tecan Ultra plate reader and Suc-LLVT-AMC as substrate (Bachem). In the wells of a black 96 well polypropylene plate, 2 μl of the respective inhibitor dissolved in DMSO were mixed with 50 μl substrate solution (25 mM HEPES pH 7.5 at 20° C., 0.5 mM EDTA and Suc-LLVT-AMC (in the appropriate concentration) and the reaction was initiated by adding 150 μl proteasome solution (1.3 μg/ml 20S proteasome in 25 mM HEPES pH 7.5 at 20° C., 0.5 mM EDTA, 0.033% (w/v) SDS). Substrate hydrolysis was followed by fluorescence spectroscopy (excitation wavelength: 360 nm; emission wavelength: 465 nm) for 20 min at 30° C. and initial velocities were calculated and expressed as change in relative fluorescence units (RFU) per second.

human Proteasome IC50 | SMILES
nanomolar | O=C1CN(N=CC(Cc2ccccc2)NC(=O)C(Cc2ccc3ccccc3c2)NC(=O)C(Cc2ccc(Br)cc2)NC(=O)OCc2ccccc2)C(=O)N1 (stereo not drawn) [Compound 5]
nanomolar | O=C1CN(N=CC(Cc2ccccc2)NC(=O)C(Cc2ccc3ccccc3c2)NC(=O)C(Cc2ccc(Br)cc2)NC(=O)OCc2cccnc2)C(=O)N1 (stereo not drawn) [Compound 6]
nanomolar | CC(C)(C)OC(=O)NC(Cc1ccc(Br)cc1)C(=O)NC(Cc1ccc2ccccc2c1)C(=O)NC(/C=N/N1CC(=O)NC1=O)Cc1ccccc1 (stereo not drawn) [Compound 7]
nanomolar | O=C1CN(/N=C/C(Cc2ccccc2)NC(=O)C(Cc2ccc3ccccc3c2)NC(=O)C(Cc2ccc(F)cc2)NC(=O)OCc2ccccc2)C(=O)N1 (stereo not drawn) [Compound 9]

Same assay, conditions: unit cell prints nM

IC50 [nM] | SMILES
76 | O=C1CN(/N=C/C(Cc2ccccc2)NC(=O)C(Cc2c[nH]c3ccccc23)NC(=O)C(Cc2c[nH]c3ccccc23)NC(=O)CCCCC2SCC3NC(=O)NC32)C(=O)N1 (stereo not drawn) [Compound 2]

Same assay, conditions: unit nm [sic]

IC50 [nM] | SMILES
157 | O=C1CN(/N=C/C(Cc2ccccc2)NC(=O)C(Cc2c[nH]c3ccccc23)NC(=O)C(Cc2c[nH]c3ccccc23)NC(=O)OCc2ccccc2)C(=O)N1 (stereo not drawn) [Compound 1]
224 | O=C1CN(/N=C/C(Cc2ccccc2)NC(=O)C(Cc2c[nH]c3ccccc23)NC(=O)C(Cc2c[nH]c3ccccc23)NC(=O)Cc2cccc(Oc3ccccc3)c2)C(=O)N1 (stereo not drawn) [Compound 3]
61 | O=C1CN(/N=C/C(Cc2ccccc2)NC(=O)C(Cc2c[nH]c3ccccc23)NC(=O)C(Cc2c[nH]c3ccccc23)NC(=O)OCc2cccnc2)C(=O)N1 (stereo not drawn) [Compound 4]
133 | O=C1CN(/N=C/C(Cc2ccccc2)NC(=O)C(Cc2c[nH]c3ccccc23)NC(=O)C(Cc2c[nH]c3ccccc23)NC(=O)OCc2cnccn2)C(=O)N1 (stereo not drawn) [Compound 8]

Same assay, conditions: unit μm [sic]

IC50 [nM] | SMILES
3540 | O=C1CN(/N=C\C(Cc2ccccc2)NC(=O)C2C=Cc3cc(Cl)ccc3O2)C(=O)N1 (stereo not drawn) [Compound 11]
2210 | O=C(/C=C/c1ccccc1)NC(/C=N\N1CC(=O)NC1=O)Cc1ccccc1 (stereo not drawn) [Compound 12]
2960 | COc1cc(C(=O)NC(/C=N/N2CC(=O)NC2=O)Cc2ccccc2)nc(OC)n1 (stereo not drawn) [Compound 14]
